The source of these data is patent US8835454B2, “Fused bicyclic diamine derivatives as HIV attachment inhibitors” (priority 2011, dated 2014).

As usually defined, the EC50 is the concentration giving half of the maximal effect.

This test concerns HIV-1 LAI envelope single-round infectious reporter virus. Kind of test: Single-round infectious luciferase reporter virus infection of MT2 cells (HIV-1 LAI envelope). It counts as cell-based. Conditions: Human immunodeficiency virus 1, MT2, 72 h. An excerpt:
Human embryonic Kidney cell line, 293T (HEK 293T), was propagated in Dulbecco's Modified Eagle Medium (Invitrogen, Carlsbad, Calif.) containing 10% fetal Bovine serum (FBS, Sigma, St. Louis, Mo.). The human T-cell leukemia cell MT2 (AIDS Research and Reference Reagent Program, Cat. 237) was propagated in RPMI 1640 (Invitrogen, Carlsbad, Calif.) containing 10% fetal bovine serum (FBS, Hyclone, Logan, Utah)
Single-round infectious reporter virus was produced by co-transfecting HEK 293T cells with plasmide expressing the HIV-1 LAI envelope along with a plasmid containing an HIV-1 LAI proviral cDNA with the envelope gene replaced by a firefly luciferase reporter gene (Chen et al, Ref 41). Transfections were performed using lipofectAMINE PLUS reagent as described by the manufacturer (Invitrogen, Carlsbad, Calif.).
• 1. MT2 cells were plated in black, 384 well plates at a cell density of 5×10^3 cells per well in 25 μl RPMI 1640 containing 10% FBS. • 2. Compound (diluted in dimethylsulfoxide and growth medium) was added to cells at 12.5 μl/well, so that the final assay concentration would be ≦50 nM. • 3. 12.5 μl of single-round infectious reporter virus in Dulbecco's Modified Eagle Medium was added to the plated cells and compound at an approximate multiplicity of infection (MOI) of 0.01, resulting in a final volume of 50 μl per well. • 4. Virus-infected cells were incubated at 37 degrees Celsius, in a CO2 incubator, and harvested 72 h after infection. • 5. Viral infection was monitored by measuring luciferase expression in the infected cells using a luciferase reporter gene assay kit (Steady-Glo, Promega, Madison, Wis.) as described by the manufacturer. Luciferase activity was then quantified by measuring luminescence using an EnVision Multilabel Plate Readers (PerkinElmer, Waltham, Mass.). • 6. The percent inhibition for each compound was calculated by quantifying the level of luciferase expression in cells infected in the presence of each compound as a percentage of that observed for cells infected in the absence of compound and subtracting such a determined value from 100. • 7. An EC50 provides a method for comparing the antiviral potency of the compounds of this disclosure. The effective concentration for fifty percent inhibition (EC50) was calculated with the Microsoft Excel Xlfit curve fitting software. For each compound, curves were generated from percent inhibition calculated at 10 different concentrations by using a four parameter logistic model (model 205). Table 1 is the key for the data in Table 2.
(In general: In a reporter assay the amount or activity of a reporter protein is the signal.)

[1] abbreviates: read-out: EC50 Group from Table 1.

Read-outs that look alike come from different tables or passages of the source. Bounds are passed on as bounds.

Turning to `O=C(C(=O)N1CC2CN(c3nnnn3-c3ccccc3)CC2C1)c1c[nH]c2c(-n3ccnn3)ncc(F)c12` (stereo not shown) [Compound 1001, 1-(4-fluoro-7-(1H-1,2,3-triazol-1-yl)-1H-pyrrolo[2,3-c]pyridin-3-yl)-2-(5-(1-phenyl-1H-tetrazol-5-yl)hexahydropyrrolo[3,4-c]pyrrol-2(1H)-yl)ethane-1,2-dione], the EC50 under setting [1] is less than 500 nM.

`COc1cnc(-n2cnc(C)n2)c2[nH]cc(C(=O)C(=O)N3CC4CN(c5nnnn5-c5ccccc5)CC4C3)c12` (stereo not shown) [Compound 1002, 1-(4-methoxy-7-(3-methyl-1H-1,2,4-triazol-1-yl)-1H-pyrrolo[2,3-c]pyridin-3-yl)-2-(5-(1-phenyl-1H-tetrazol-5-yl)hexahydropyrrolo[3,4-c]pyrrol-2(1H)-yl)ethane-1,2-dione] had an EC50 of 1.41 nM. Besides, under setting [1], the EC50 is less than 500 nM.

`COc1cnc(-n2cnc(C)n2)c2[nH]cc(C(=O)C(=O)N3CC4CN(Cc5ccccc5)CC4C3)c12` (stereo not shown) [Compound 2001]: the EC50 under setting [1] is less than 500 nM.

Turning to `O=C(C(=O)N1CC2CN(Cc3ccccc3)CC2C1)c1c[nH]c2c(-n3ccnn3)ncc(F)c12` (stereo not shown) [Compound 2003], under setting [1], the EC50 is greater than 500 nM.

Regarding `O=C(C(=O)N1CC2CN(C(=O)c3ccccc3)CC2C1)c1c[nH]c2c(-n3ccnn3)ncc(F)c12` (stereo not shown) [Compound 2005], the EC50 under setting [1] was less than 500 nM.

Consider `COc1cnc(-n2cnc(C)n2)c2[nH]cc(C(=O)C(=O)N3CC4CN(C(=O)c5ccccc5)CC4C3)c12` (stereo not shown) [Compound 2006], for which the EC50 came to 0.68 nM. The EC50 under setting [1] is less than 500 nM.

With `CN(C)C(=O)N1CC2CN(C(=O)C(=O)c3c[nH]c4c(-n5ccnn5)ncc(F)c34)CC2C1` (stereo not shown) [Compound 3001, 5-(2-(4-fluoro-7-(1H-1,2,3-triazol-1-yl)-1H-pyrrolo[2,3-c]pyridin-3-yl)-2-oxoacetyl)-N,N-dimethylhexahydropyrrolo[3,4-c]pyrrole-2(1H)-carboxamide], the EC50 under setting [1] is less than 500 nM.

On to `COc1cnc(-n2cnc(C)n2)c2[nH]cc(C(=O)C(=O)N3CC4CN(C(=O)N(C)C)CC4C3)c12` (stereo not shown) [Compound 3002, 5-(2-(4-methoxy-7-(3-methyl-1H-1,2,4-triazol-1-yl)-1H-pyrrolo[2,3-c]pyridin-3-yl)-2-oxoacetyl)-N,N-dimethylhexahydropyrrolo[3,4-c]pyrrole-2(1H)-carboxamide], for which the EC50 under setting [1] was less than 500 nM.
